From ChEMBL document CHEMBL3751732 (Bioorg Med Chem Lett, 2016)
The source made the active and inactive calls. No cut-off for these calls is given here.

Columns and labels:
[1] = target: Histamine H3 receptor (Homo sapiens, UniProt Q9Y5N1); test: Displacement of [3H]Nalpha-methylhistamine from human histamine 3 receptor expressed in Sf9 cell membranes by liquid scintillation counting
[2] = target: T1, Histamine H4 receptor (Homo sapiens, UniProt Q9H3N8); test: Antagonist activity at human histamine 4 receptor expressed in Sf9 cell membranes co-expressing Galphai2 and Gbeta1gamma2 assessed as [35S]GTPgammaS binding by scintillation counting relative to control histamine; assay type: functional
[3] = target: T1, Histamine H4 receptor; test: Displacement of [3H]histamine from human histamine 4 receptor expressed in Sf9 cell membranes by liquid scintillation counting
[4] = target: Histamine H2 receptor (Homo sapiens, UniProt P25021); test: Displacement of [3H]UR-DE257 from human histamine 2 receptor expressed in Sf9 cell membranes by liquid scintillation counting
[5] = target: T1, Histamine H4 receptor; test: Antagonist activity at human histamine 4 receptor expressed in Sf9 cell membranes co-expressing Galphai2 and Gbeta1gamma2 assessed as [35S]GTPgammaS binding by scintillation counting; assay type: functional
[6] = target: Histamine H1 receptor (Homo sapiens, UniProt P35367); test: Displacement of [3H]mepyramine from human histamine 1 receptor expressed in Sf9 cell membranes by liquid scintillation counting
Sequence of Histamine H1 receptor (P35367 whole entry): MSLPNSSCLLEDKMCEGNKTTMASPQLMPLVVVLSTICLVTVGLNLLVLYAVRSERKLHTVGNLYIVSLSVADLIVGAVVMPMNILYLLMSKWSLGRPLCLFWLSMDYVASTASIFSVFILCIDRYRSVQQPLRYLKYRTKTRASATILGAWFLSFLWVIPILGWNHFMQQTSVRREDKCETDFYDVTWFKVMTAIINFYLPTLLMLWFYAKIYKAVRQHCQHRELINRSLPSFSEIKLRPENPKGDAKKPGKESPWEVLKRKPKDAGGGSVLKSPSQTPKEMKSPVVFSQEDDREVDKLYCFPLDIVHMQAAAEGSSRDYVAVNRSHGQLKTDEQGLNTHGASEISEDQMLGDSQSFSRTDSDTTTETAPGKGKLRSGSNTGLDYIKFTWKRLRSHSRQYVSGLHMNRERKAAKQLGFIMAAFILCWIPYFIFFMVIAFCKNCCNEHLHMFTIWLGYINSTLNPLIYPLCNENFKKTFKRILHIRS

Sequence of Histamine H3 receptor (Q9Y5N1 whole entry): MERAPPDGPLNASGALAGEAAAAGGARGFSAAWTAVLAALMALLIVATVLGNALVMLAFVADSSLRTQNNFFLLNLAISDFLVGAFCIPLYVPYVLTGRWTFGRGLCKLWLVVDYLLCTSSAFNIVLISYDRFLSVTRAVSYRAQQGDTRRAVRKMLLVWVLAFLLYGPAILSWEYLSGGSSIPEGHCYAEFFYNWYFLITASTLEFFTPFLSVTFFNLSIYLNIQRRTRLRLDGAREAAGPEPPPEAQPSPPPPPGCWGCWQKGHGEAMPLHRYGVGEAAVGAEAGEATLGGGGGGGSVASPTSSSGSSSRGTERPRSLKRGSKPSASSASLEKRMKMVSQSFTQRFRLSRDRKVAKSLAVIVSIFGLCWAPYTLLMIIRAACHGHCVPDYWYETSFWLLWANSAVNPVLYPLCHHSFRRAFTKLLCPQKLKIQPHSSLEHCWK
T1 sequence (Q9H3N8 whole entry): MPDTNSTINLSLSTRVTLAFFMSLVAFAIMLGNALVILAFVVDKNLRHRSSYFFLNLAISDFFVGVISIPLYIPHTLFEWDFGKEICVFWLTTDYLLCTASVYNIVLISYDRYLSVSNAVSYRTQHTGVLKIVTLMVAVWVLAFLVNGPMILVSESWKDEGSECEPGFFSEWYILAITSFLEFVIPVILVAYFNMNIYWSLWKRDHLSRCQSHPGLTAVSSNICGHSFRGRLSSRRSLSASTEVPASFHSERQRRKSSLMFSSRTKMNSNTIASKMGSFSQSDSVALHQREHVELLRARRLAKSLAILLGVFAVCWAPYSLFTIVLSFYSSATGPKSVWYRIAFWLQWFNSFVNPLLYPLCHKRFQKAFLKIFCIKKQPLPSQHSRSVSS
Sequence of Histamine H2 receptor (P25021 whole entry): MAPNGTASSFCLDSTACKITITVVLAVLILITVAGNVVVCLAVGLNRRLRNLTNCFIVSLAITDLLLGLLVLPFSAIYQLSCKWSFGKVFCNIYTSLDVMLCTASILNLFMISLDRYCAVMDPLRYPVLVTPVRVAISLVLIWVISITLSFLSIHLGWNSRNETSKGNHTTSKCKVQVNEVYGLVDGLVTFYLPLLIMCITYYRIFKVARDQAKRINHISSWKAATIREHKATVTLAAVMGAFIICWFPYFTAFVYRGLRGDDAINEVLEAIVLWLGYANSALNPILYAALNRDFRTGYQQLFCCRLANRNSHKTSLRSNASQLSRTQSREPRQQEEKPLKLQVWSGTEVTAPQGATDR

Row | SMILES | Ki [3] [µM] | Ki [6] [µM] | also measured
1 | CN1CCN(c2nc(N)nc3c2CCc2ccccc2-3)CC1 | 0.186 | 9.12 | Ki [1]: 9.77 µM; Ratio [2]: -0.47; Ki [4]: 31.6 µM; EC50 [5]: 0.295 µM
2 | CN1CCN(C2=Nc3ccc(Cl)cc3Oc3ccccc32)CC1 | – | 0.00832 | –
3 | CN1CCN(c2nc(NCCc3ccccc3)nc3c2CCc2ccccc2-3)CC1 | 9.12 | 9.33 | –
4 | CN1CCN(c2nc(NCc3cccs3)c3cc(Cl)ccc3n2)CC1 | – | 0.55 | –
5 | CN1CCN(c2nc(NCCc3ccccc3)c3c(n2)-c2ccccc2CC3)CC1 | 15.1 | 8.13 | –
6 | CN1CCN(c2cc(-c3ccccc3)nc(NCCc3ccccc3)n2)CC1 | 9.77 | 3.31 | –
7 | COc1ccc(CNc2nc(N3CCN(C)CC3)nc3c2CCc2ccccc2-3)cc1-c1ccc(Cl)cc1 | 19.5 | 6.31 | –
8 | CN(C)c1nc(NCCc2ccccc2)cc(-c2ccccc2)n1 | – | – | pKi [3]: inactive; pKi [6]: inactive
9 | CN1CCN(c2nc3c(c(N4CCN(C)CC4)n2)-c2ccccc2CC3)CC1 | 7.76 | 1.17 | –
10 | COc1ccc(CNc2nc3c(c(N4CCN(C)CC4)n2)-c2ccccc2CC3)cc1 | 13.8 | 1.07 | –
11 | CN1CCN(c2nc(NCc3ccccc3)cc(-c3ccccc3)n2)CC1 | 31.6 | 2.51 | –
12 | CN1CCN(c2nc(NCc3ccccc3)nc3c2CCc2ccccc2-3)CC1 | 1.58 | 2.09 | Ki [1]: 6.03 µM; Ratio [2]: -1.01; Ki [4]: 6.92 µM; EC50 [5]: 0.933 µM
13 | CN1CCN(c2cc(-c3ccccc3)nc(NCc3ccccc3)n2)CC1 | 0.955 | 1.12 | Ki [1]: 2.51 µM; Ratio [2]: -1.27; Ki [4]: 10.2 µM; EC50 [5]: 0.912 µM
14 | Cc1ccc(CNc2nc3c(c(N4CCN(C)CC4)n2)CCc2ccccc2-3)cc1 | 20 | 3.39 | –
15 | CN1CCN(c2nc(NCc3ccccc3)c3c(n2)-c2ccccc2CC3)CC1 | 14.5 | 0.891 | –
16 | COc1ccc(CNc2cc(-c3ccccc3)nc(N3CCN(C)CC3)n2)cc1 | 72.4 | 4.17 | –
17 | COc1ccc(CNc2nc3c(c(N4CCN(C)CC4)n2)CCc2ccccc2-3)cc1 | 4.27 | 5.75 | –
18 | COc1ccc(CNc2nc(-c3ccccc3)cc(N3CCN(C)CC3)n2)cc1 | 1.74 | 5.25 | –
19 | CN1CCN(c2nc(NCCc3ccccc3)nc3c2-c2ccccc2CC3)CC1 | 6.76 | 1.86 | –
20 | COc1ccc(CNc2cc(-c3ccccc3)nc(N(C)C)n2)cc1 | – | – | pKi [3]: inactive; pKi [6]: inactive
21 | CN1CCN(c2nc(NCc3ccc(F)cc3)nc3c2CCc2ccccc2-3)CC1 | 11 | 1.95 | –
22 | CN1CCN(c2nc(NCCc3ccccc3)cc(-c3ccccc3)n2)CC1 | 36.3 | 1.95 | –
23 | CN1CCN(c2nc(NCc3ccccc3)nc3c2-c2ccccc2CC3)CC1 | 26.3 | 1.91 | –
